Each structure is given as a SMILES string. Read-outs that look alike come from different tables or passages of the source. *1 amine or outer side, *2 acyl side, *3 side chain or, on linkers, in order; H or OH if unused. Where a SMILES comes first, the peptide text is derived from it. Bridges are numbered along the chain shown (N, C = ends). [ ]: non-standard residue; d: D form. The star is where a group is joined. Phe(3,5-F2) = N[C@@H](Cc1cc(F)cc(F)c1)C(=O)O; Morpholine(3S-CO) = O=C(O)[C@@H]1COCCN1; Pro(4S-Me) = C[C@@H]1CN[C@H](C(=O)O)C1; Pro(4R-Me) = C[C@H]1CN[C@H](C(=O)O)C1; NH(3,4-Me2-phenyl) = Cc1ccc(N*)cc1C; NMeaThr = CN[C@H](C(=O)O)[C@H](C)O; Hyp = O=C(O)[C@@H]1C[C@@H](O)CN1; NH(4-Et-phenyl) = CCc1ccc(N*)cc1; NH(4-Me-phenyl) = Cc1ccc(N*)cc1; aThr = C[C@H](O)[C@H](N)C(=O)O; Pip = O=C(O)[C@@H]1CCCCN1; NMeA = CN[C@@H](C)C(=O)O; CO = O=C([*:1])[*:2]; X7 = CC/C=C/C(=O)*

The results in this text go back to patent US10457707B2, “Substituted urea depsipeptide analogs as activators of the CLPP endopeptidase” (priority 2015, dated 2019).

Assay [1] addresses T1, Sa-ClpP (Staphylococcus aureus, UniProt Q2G036).
T1 construct: made in house; host or cells: E. coli BL21(DE3)
T1 sequence (Q2G036 1-195): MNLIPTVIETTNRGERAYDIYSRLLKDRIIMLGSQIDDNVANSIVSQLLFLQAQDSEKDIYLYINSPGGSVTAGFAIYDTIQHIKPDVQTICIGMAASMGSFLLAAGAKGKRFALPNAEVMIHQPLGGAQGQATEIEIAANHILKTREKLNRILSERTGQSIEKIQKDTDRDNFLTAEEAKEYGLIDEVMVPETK
In words: ADEP displacement fluorescence polarization assay (FP probe ADEP 2591). Format: binding. The essentials:
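Probe displacement was measured in mP after compounds sat 120 min at room temperature with pre-equilibrated (1 h) Sa-ClpP (15 μM) and ADEP 2591 FP probe (50 nM) in pH 8.0 Tris-HCl with 2% DMSO. Data were scaled between DMSO and 200 μM ADEP 2378 and fit by variable-slope log-inhibitor regression.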
On the technique in general: Polarisation of emitted light reports the rotation of a fluorescent probe.

The target in assay [2] is T1, Sa-ClpP. Nature of the assay: Sa-ClpP casein-BODIPY ClpP activation assay, method variant not marked in Table 5. Format: biochemical, S. aureus. As for the experimental part:
The compounds were assayed in a casein digestion assay in order to determine their effect on ClpP activation. Briefly, the assay was carried out using S. aureus ClpP (“Sa-ClpP”) overexpressed in E. coli BL21(DE3) and purified in a two-step process. Purity of the protein was assessed through SDS PAGE analysis. EC50 evaluations were conducted in triplicate in a 20 μl assay format using a method adapted from Maurizi et al. (Methods Enzymol. (1994) 244:314-331). Each well contained 10 μM saClpP, 25 μg/ml BODIPY FL casein (Invitrogen Corporation, San Diego, Calif.), and test compound in concentrations ranging between 0-1000 μM in assay buffer (50 mM Tris pH 8, 200 mM KCl, and 1 mM TCEP). The reaction took place at 37° C. Fluorescence (excitation 485 nm; emission 528 nm) was measured in five minute intervals over a 45 min period using a BioTek HT fluorescence microplate reader (BioTek Instruments, Inc., Winooski, Vt.). Velocity of each reaction was calculated and data was fit to a dose response curve using GraphPad Prism® software (GraphPad Software, Inc., La Jolla, Calif.). EC50 is the effective concentration of compound which causes 50% activation of S. aureus ClpP in the foregoing BODIPY FL casein assay.
Alternatively, the assay was carried out using EnzCheck Protease Assay (Molecular Probes, Catalog # E6638). The assay was performed in black 384 well, flat bottom, low volume plates (Greiner Bio-One, Monroe, N.C., catalog #784076). 10 μL of Tris*HCl buffer, pH 8.0 with 0.01% Triton X-100 was pipetted into each well using a Well-Mate (Thermo Scientific, Waltham, Mass.). 0.4 μL test compounds or controls (2% DMSO v/v) were added to each well using a Biomek FX liquid handling robot (Beckman Coulter, Indianapolis Ind.). After addition of test compounds and controls, 10 μL of master mix containing 2 μM Sa-ClpP and 2 μM substrate (Bodipy-FL labeled casein) in Tris*HCl buffer, pH 8.0 with 0.01% (v/v) Triton X-100, was pipetted into each well. All assays were performed in triplicate, under linear velocity conditions. Increase in fluorescent signal following activation of Sa-ClpP by test compounds and controls was measured over time period of 30 mins using filters with excitation at 485±15 nm and emission at 520±25 nm on a PHERAstar FS Multilabel reader (BMG, Cary, N.C.). […] Data analysis was done by measuring rate of casein degradation over time (slopes). Computed degradation rates (slopes) were normalized to positive (ADEP4) or negative (DMSO) controls. Using nonlinear regression curve fitting EC50 values and % activation were determined using the equation “log [agonist] vs. Response-variable slope (four parameters)-symmetrical” in the program Prism 6 (GraphPad Software, La Jolla, Calif. USA, www.graphpad.com).
Substituted urea depsipetide analogs were synthesized as described above. The EC50 for ClpP activation was determined in the Sa-ClpP in casein-BODIPY assay as described above. The IC50 for ADEP displacement was determined in the ADEP displacement fluorescent polarization assay as described above; and the IC50 for growth inhibition was determined in the Vero cell cytotoxicity assay as described above. The compound number corresponds to the compound numbers used in Tables 1-4 and the experimental examples described above.

The mark [3] stands for this setting: values without ** or † mark, assay variant not stated, read-out: ClpP Activation EC50.
The mark [4] stands for this setting: displacement of FP probe ADEP 2591 from Sa-ClpP, read-out: ADEP Displacement IC50.

Broadly, the IC50 is the point on the concentration scale where inhibition reaches its midpoint. One may read the EC50 as the concentration giving half of the maximal effect. As for `Cc1ccc(NC(=O)N[C@@H](Cc2cc(F)cc(F)c2)C(=O)N[C@H]2COC(=O)[C@@H]3C[C@@H](C)CN3C(=O)[C@H](C)NC(=O)[C@@H]3CCCCN3C(=O)[C@@H]3CCCN3C2=O)cc1C` [Compound 207, (S)-3-(3,5-difluorophenyl)-N-((2R,6S,8aS,14aS,20S,23aS)-2,6-dimethyl-5,8,14,19,23-pentaoxooctadecahydro-1H,5H,14H,19H-pyrido[2,1-i]dipyrrolo[2,1-c:2′,1′-l][1]oxa[4,7,10,13]tetraazacyclohexadecin-20-yl)-2-(3-(3,4-dimethylphenyl)ureido)propanamide], the IC50 in assay [1] is 5.2 ± 0.3 µM. In addition, the EC50 in assay [2] (setting [3]) stood at 8300 ± 1900 nM.

As to `Cc1ccc(NC(=O)N[C@@H](Cc2cc(F)cc(F)c2)C(=O)N[C@@H]2C(=O)N3CCC[C@H]3C(=O)N(C)[C@@H]([C@H](C)O)C(=O)N[C@@H](C)C(=O)N3C[C@H](C)C[C@H]3C(=O)O[C@H]2C)cc1` [Compound 208, (S)-3-(3,5-difluorophenyl)-N-((2R,6S,9S,11aS,17S,18S,20aS)-9-((S)-1-hydroxyethyl)-2,6,10,18-tetramethyl-5,8,11,16,20-pentaoxohexadecahydro-1H,5H,16H-dipyrrolo[2,1-c:2′,1′-l][1]oxa[4,7,10,13]tetraazacyclohexadecin-17-yl)-2-(3-(p-tolyl)ureido)propanamide] ({NH(4-Me-phenyl)-CO}-[Phe(3,5-F2)][aThr]P[NMeaThr]A[Pro(4R-Me)]; ester 2-C), the IC50 in assay [1] (setting [4]) was found to be 6.52 ± 0.3 µM. Moreover, in assay [2] (setting [3]), the EC50 came to 480 ± 30 nM.

Turning to `Cc1ccc(NC(=O)N[C@@H](Cc2cc(F)cc(F)c2)C(=O)N[C@@H]2C(=O)N3CCC[C@H]3C(=O)N3CCCC[C@H]3C(=O)N[C@@H](C)C(=O)N3C[C@H](C)C[C@H]3C(=O)O[C@H]2C)cc1` [Compound 209, (S)-3-(3,5-difluorophenyl)-2-(3-(p-tolyl)ureido)-N-((2R,6S,8aS,14aS,20S,21S,23aS)-2,6,21-trimethyl-5,8,14,19,23-pentaoxooctadecahydro-1H,5H,14H,19H-pyrido[2,1-i]dipyrrolo[2,1-c:2′,1′-l][1]oxa[4,7,10,13]tetraazacyclohexadecin-20-yl)propanamide] ({NH(4-Me-phenyl)-CO}-[Phe(3,5-F2)][aThr]P[Pip]A[Pro(4R-Me)]; ester 2-C), in assay [1] (setting [4]), the concentration for half-maximal inhibition (IC50) was 9 ± 0.4 µM. Besides, the EC50 in assay [2] (setting [3]) was determined as 360 ± 30 nM.

In assay [1], `Cc1ccc(NC(=O)N[C@@H](Cc2cc(F)cc(F)c2)C(=O)N[C@@H]2C(=O)N3CCC[C@H]3C(=O)N3CCOC[C@H]3C(=O)N[C@@H](C)C(=O)N3C[C@H](C)C[C@H]3C(=O)O[C@H]2C)cc1` [Compound 210, (S)-3-(3,5-difluorophenyl)-2-(3-(p-tolyl)ureido)-N-((6aS,12S,13S,15aS,17R,21S,23aS)-13,17,21-trimethyl-6,11,15,20,23-pentaoxooctadecahydro-6H,11H,15H-[1,4]oxazino[3,4-i]dipyrrolo[2,1-c:2′,1′-l][1]oxa[4,7,10,13]tetraazacyclohexadecin-12-yl)propanamide] ({NH(4-Me-phenyl)-CO}-[Phe(3,5-F2)][aThr]P[Morpholine(3S-CO)]A[Pro(4R-Me)]; ester 2-C) returned an IC50 of 7.1 ± 0.2 µM. In addition, the EC50 in assay [2] (setting [3]) was 400 ± 10 nM.

Regarding `CCc1ccc(NC(=O)N[C@@H](Cc2cc(F)cc(F)c2)C(=O)N[C@@H]2C(=O)N3C[C@H](O)C[C@H]3C(=O)N3CCCC[C@H]3C(=O)N[C@@H](C)C(=O)N3C[C@H](C)C[C@H]3C(=O)O[C@H]2C)cc1` [Compound 211, (S)-3-(3,5-difluorophenyl)-2-(3-(4-ethylphenyl)ureido)-N-((2R,6S,8aS,14aS,16R,20S,21S,23aS)-16-hydroxy-2,6,21-trimethyl-5,8,14,19,23-pentaoxooctadecahydro-1H,5H,14H,19H-pyrido[2,1-i]dipyrrolo[2,1-c:2′,1′-l][1]oxa[4,7,10,13]tetraazacyclohexadecin-20-yl)propanamide] ({NH(4-Et-phenyl)-CO}-[Phe(3,5-F2)][aThr][Hyp][Pip]A[Pro(4R-Me)]; ester 2-C), the IC50 in assay [1] was determined as 6.8 ± 0.3 µM. The same molecule showed an EC50 in assay [2] of 500 ± 10 nM.

In assay [1], `Cc1ccc(NC(=O)N[C@@H](Cc2cc(F)cc(F)c2)C(=O)N[C@@H]2C(=O)N3C[C@H](O)C[C@H]3C(=O)N3CCCC[C@H]3C(=O)N[C@@H](C)C(=O)N3C[C@H](C)C[C@H]3C(=O)O[C@H]2C)cc1C` [Compound 212, (S)-3-(3,5-difluorophenyl)-2-(3-(3,4-dimethylphenyl)ureido)-N-((2R,6S,8aS,14aS,16R,20S,21S,23aS)-16-hydroxy-2,6,21-trimethyl-5,8,14,19,23-pentaoxooctadecahydro-1H,5H,14H,19H-pyrido[2,1-i]dipyrrolo[2,1-c:2′,1′-l][1]oxa[4,7,10,13]tetraazacyclohexadecin-20-yl)propanamide] ({NH(3,4-Me2-phenyl)-CO}-[Phe(3,5-F2)][aThr][Hyp][Pip]A[Pro(4R-Me)]; ester 2-C) had an IC50 of 6.9 ± 0.3 µM. For the same molecule, the EC50 in assay [2] (setting [3]) stood at 500 ± 30 nM.

Turning to `Cc1ccc(NC(=O)N[C@@H](Cc2cc(F)cc(F)c2)C(=O)N[C@@H]2C(=O)N3C[C@H](O)C[C@H]3C(=O)N(C)[C@@H](C)C(=O)N[C@@H](C)C(=O)N3C[C@@H](C)C[C@H]3C(=O)O[C@H]2C)cc1` [Compound 214, (S)-3-(3,5-difluorophenyl)-N-((2S,6S,9S,11aS,13R,17S,18S,20aS)-13-hydroxy-2,6,9,10,18-pentamethyl-5,8,11,16,20-pentaoxohexadecahydro-1H,5H,16H-dipyrrolo[2,1-c:2′,1′-l][1]oxa[4,7,10,13]tetraazacyclohexadecin-17-yl)-2-(3-(p-tolyl)ureido)propanamide] ({NH(4-Me-phenyl)-CO}-[Phe(3,5-F2)][aThr][Hyp][NMeA]A[Pro(4S-Me)]; ester 2-C), the IC50 in assay [1] (setting [4]) turned out to be 5.8 ± 0.3 µM. Also, the EC50 in assay [2] (setting [3]) stood at 1280 ± 30 nM.

With `Cc1ccc(NC(=O)N[C@@H](Cc2cc(F)cc(F)c2)C(=O)N[C@@H]2C(=O)N3C[C@H](O)C[C@H]3C(=O)N3CCOC[C@H]3C(=O)N[C@@H](C)C(=O)N3C[C@H](C)C[C@H]3C(=O)O[C@H]2C)cc1C` [Compound 215, (S)-3-(3,5-difluorophenyl)-2-(3-(3,4-dimethylphenyl)ureido)-N-((6aS,8R,12S,13S,15aS,17R,21S,23aS)-8-hydroxy-13,17,21-trimethyl-6,11,15,20,23-pentaoxooctadecahydro-6H,11H,15H-[1,4]oxazino[3,4-i]dipyrrolo[2,1-c:2′,1′-l][1]oxa[4,7,10,13]tetraazacyclohexadecin-12-yl)propanamide] ({NH(3,4-Me2-phenyl)-CO}-[Phe(3,5-F2)][aThr][Hyp][Morpholine(3S-CO)]A[Pro(4R-Me)]; ester 2-C), the IC50 in assay [1] was 6.8 ± 0.3 µM. For the same molecule, in assay [2] (setting [3]), the EC50 amounted to 500 ± 10 nM.

In the case of `CC/C=C/C(=O)N[C@@H](Cc1cc(F)cc(F)c1)C(=O)N[C@@H]1C(=O)N2C[C@H](O)C[C@H]2C(=O)N2CCCC[C@H]2C(=O)N[C@@H](C)C(=O)N2C[C@H](C)C[C@H]2C(=O)O[C@H]1C` [Compound 300] (X7-[Phe(3,5-F2)][aThr][Hyp][Pip]A[Pro(4R-Me)]; ester 2-C), the IC50 in assay [1] turned out to be 5.94 ± 0.3 µM. In addition, in assay [2] (setting [3]), the EC50 was 440 ± 30 nM.
